In patent US20060135624A1, “Natural compound useful for treating diabetes, its preparation and use” (JINGYU LIANG ET AL, priority 2002, published 2006):

Tests used:
[1] = test system: mouse hyperglycemia induced by alloxan; assay: Effects of Sequoyitol on mouse hyperglycemia induced by alloxan; type: in vivo, Kunming mice
Experimental: 1. Experimental Methods^[1,2] • Among 60 mice, 10 mice were randomly selected as normal group, and the residual mice were administrated with 65 mg/kg alloxan by caudal vein injection, modeled according to the method of documents, and divided into 5 groups according to blood-sugar values, wherein 4 groups were perorally administrated with 25, 50 and 100 mg/kg of Sequoyitol and 75 mg/kg of phenformine according to 0.1 ml/10 g of body weight, respectively, and the normal group and modeling group were administrated with the same volum of distilled water, separately. These administrations were conducted for continuous 7 days. The blood-sugar levels were detected by glucose oxidase method. The pancreatic glands of the mice were soaked in 10% formalin, embedded with paraffin, sliced, and dyed with HE dye.

normal mice = assay: Test of acute toxicity by intravenous administration; type: in vivo; details: 5.04 g/kg intravenous injection
Text: 1) Experimental Method • 20 Normal mice (half male and half female) were administrated with 5.04 g/kg Sequoyitol (which reached the maximum concentration and the maximum intravenous administration volume) by intravenous injection. The animals' responses were observed. The mice were executed after 14 days, and their organs were macroscopically observed.

rats = assay: General pharmacology in rats; details: rat, in vivo
Text: • 1. Guidelines for Studying New Drugs (Pharmacy, Pharmacology, Toxicology), Bureau of Drug Administration, the Ministry of Health of the People's Republic of China • 2. Chen Q I, Methodology for Studying Pharmacology of Chinese Medicine, People' Medical Publishing House, 1st Edition, 1993, 118-119 III. Studies on General Pharmacology • The effects of Sequoyitol on general physical signs and spontaneous movement of normal mice, on Pentobarbital hours of sleep of mice, and on respiratory movement, blood pressure, cardiac rhythm and electrocardiogram of rats were observed.

[2] = test system: mouse hyperglycemia induced by adrenalin; assay: Effect of Sequoyitol on mouse hyperglycemia induced by adrenalin; type: in vivo, Kunming mice; details: for hepatic glycogen level increased compared to the control group: adrenalin model; for blood-sugar level decreased compared to the control group: 30 minutes after adrenalin 0.2 mg/kg i.p.
Experimental: 1. Experimental Methods^[3] • 72 Mice were randomly divided into 6 groups, wherein 4 groups were orally administrated with 25, 50 and 100 mg/kg of Sequoyitol and 10 mg/kg of Glibenclamide according to 0,1 ml/10 g of body weight, respectively, and the normal group and modeling group were administrated with the same volum of distilled water. These administrations were conducted for continuous 7 days. The normal group was administrated with the same volum of physiological saline by injection, while other groups were administrated with 0.2 mg/kg of adrenalin by intra-abdominal injection. The blood-sugar levels were detected by glucose oxidase method after 30 minutes of administration. The livers of the mice were collected, and hepatic glycogen levels were detected by anthrone method.

[3] = Sequoyitol 25 mg/kg oral 7 days
[4] = Sequoyitol 100 mg/kg oral 7 days

`COC1C(O)C(O)C(O)C(O)C1O` (stereo not shown) [Sequoyitol, 5-O-methyl-myo-inositol] was tested, and the “alloxan-induced hyperglycemia compared to the control group” value ([1]; Sequoyitol 25 mg/kg p.o. 7 days) was “alleviated”, the “blood-sugar level decreased compared to the control group” value (shortened to “blood-sugar level decreased”) ([1]; Sequoyitol 50 mg/kg p.o. 7 days) was 195.2 mg/dL and the “blood-sugar level decreased” value ([1]; Sequoyitol 100 mg/kg p.o. 7 days) was 306.8 mg/dL. The “number of pancreatic islands and number of islet cells (histopathologic examination) compared to the model group” value ([1]; Sequoyitol groups (25, 50, 100 mg/kg p.o. 7 days)) was “increased significantly”, the “main organs under macroscopic observation” value (normal mice; executed after 14 days) was “free of abnormality” and the “animals' responses after intravenous injection” value (normal mice; observed 14 days) was “better health status, gloss fur, bright eyes, and good rang of motion”. For the same compound, the “effect on blood pressure of rats” value (rats) was “did not significantly affect”, the “effect on cardiac rhythm of rats” value (rats) was “did not significantly affect” and the “effect on electrocardiogram of rats” value (rats) was “did not significantly affect”. For the same compound, the “effect on respiratory movement of rats” value (rats) was “did not significantly affect”, the “hepatic glycogen level increased compared to the control group” value (shortened to “hepatic glycogen level increased”) ([2]; Sequoyitol 20 mg/kg (so in the source) oral 7 days) was 1.24 mg/g of liver tissue and the “blood-sugar level decreased” value [2, 3] was 32.2 mg/dL. The “hepatic glycogen level increased” value [2, 3] was 1.76 mg/g of liver tissue, the “blood-sugar level decreased” value ([2]; Sequoyitol 50 mg/kg oral 7 days) was 35.5 mg/dL and the “blood-sugar level decreased” value [2, 4] was 39.9 mg/dL. For the same compound, the “hepatic glycogen level increased” value [2, 4] was 1.24 mg/g of liver tissue.
